IC50 data for 86 compounds are collected here from the Kinase Knowledgebase extract (Sharma et al. 2016).

Where only a bound is given, the exact number is not on record here.

The target in the assay is PIK3CA (human) (UniProt P42336). Description: Assessment of PIK3CA Kinase Activity.
PIK3CA (human), sequence (P42336 whole entry, looked up): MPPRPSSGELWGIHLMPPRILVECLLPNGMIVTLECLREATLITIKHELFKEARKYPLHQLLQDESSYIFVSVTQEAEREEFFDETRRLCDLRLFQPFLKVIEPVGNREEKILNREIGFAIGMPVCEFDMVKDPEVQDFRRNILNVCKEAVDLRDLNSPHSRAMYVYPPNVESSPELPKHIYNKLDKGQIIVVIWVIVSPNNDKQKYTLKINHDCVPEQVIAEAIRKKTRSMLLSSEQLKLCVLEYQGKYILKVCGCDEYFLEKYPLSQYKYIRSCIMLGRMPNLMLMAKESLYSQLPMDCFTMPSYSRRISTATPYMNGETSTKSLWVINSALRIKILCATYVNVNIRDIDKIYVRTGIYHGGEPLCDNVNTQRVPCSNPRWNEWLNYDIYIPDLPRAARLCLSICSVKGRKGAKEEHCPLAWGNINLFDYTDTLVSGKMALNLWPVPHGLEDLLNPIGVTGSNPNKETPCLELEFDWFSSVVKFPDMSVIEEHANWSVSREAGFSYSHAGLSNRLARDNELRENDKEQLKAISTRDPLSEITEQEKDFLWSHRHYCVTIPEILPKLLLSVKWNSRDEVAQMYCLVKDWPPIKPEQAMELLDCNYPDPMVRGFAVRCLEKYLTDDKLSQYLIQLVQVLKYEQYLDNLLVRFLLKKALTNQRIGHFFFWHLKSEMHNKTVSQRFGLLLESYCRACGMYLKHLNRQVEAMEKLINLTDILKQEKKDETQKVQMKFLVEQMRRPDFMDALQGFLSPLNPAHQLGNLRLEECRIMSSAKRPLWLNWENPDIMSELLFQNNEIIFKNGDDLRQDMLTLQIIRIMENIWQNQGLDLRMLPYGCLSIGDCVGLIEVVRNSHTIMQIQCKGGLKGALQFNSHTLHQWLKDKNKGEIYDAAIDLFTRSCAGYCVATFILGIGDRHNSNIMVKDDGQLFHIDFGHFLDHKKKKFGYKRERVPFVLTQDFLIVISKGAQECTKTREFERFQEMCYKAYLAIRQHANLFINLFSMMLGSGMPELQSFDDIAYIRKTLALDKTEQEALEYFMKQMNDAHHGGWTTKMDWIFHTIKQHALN
`Nc1ccc2c(c1)OCCn1cc(-c3ncnn3CC(F)(F)F)nc1-2` registered an IC50 below 1000 nM.
Under `Cc1nc(-c2cn3c(n2)-c2ccc(N)cc2OCC3)n(C(C)C)n1` stands below 1000 nM; under `CC(C)n1ncnc1-c1cn2c(n1)-c1cnc(N3CCCC3)cc1OCC2`, below 1000 nM; under `Cc1nc(-c2cn3c(n2)-c2cc(-c4ccc(=O)[nH]c4)ccc2OCC3)n(C(C)C)n1`, below 1000 nM.
`CC(C)n1nc(CO)nc1-c1cn2c(n1)-c1cnc(N3CC(F)(F)C3)cc1OCC2` displayed an IC50 below 1000 nM.
Under `CS(=O)(=O)CCN1CCC(c2ccc3c(c2)-n2nc(-c4ncnn4CC(F)(F)F)cc2CCO3)CC1` stands below 1000 nM.
As to `CC(C)n1ncnc1-c1cn2c(n1)-c1cc(N3CCN(C)CC3)ncc1OCC2`, the IC50 is below 1000 nM.
Under `Cc1nc(-c2cn3c(n2)-c2ccc(-c4cnn(C5CN(CCO)C5)c4)cc2OCC3)n(C(C)C)n1` stands below 1000 nM.
In turn, `CC(C)n1ncnc1-c1cn2c(n1)-c1ccc(OCC(N)=O)cc1OCC2` returned an IC50 below 1000 nM.
Under `CC(C)n1ncnc1-c1cn2c(n1)-c1cc(NC3CNC3)ncc1OCC2` stands below 1000 nM.
Under `CC(C)n1ncnc1-c1cc2n(n1)-c1cc(C3CNC3)ccc1OCC2` stands below 1000 nM; under `CC(C)n1ncnc1-c1cn2c(n1)-c1cc(-c3ccc[nH]c3=O)ccc1OCC2`, below 1000 nM; under `Cc1nc(-c2cn3c(n2)-c2ccc(-c4cnn(CCN5CCOCC5)c4)cc2OCC3)n(C(C)C)n1`, below 1000 nM.
For the compound `CC(C)n1nc(N)nc1-c1cn2c(n1)-c1cc(-c3cncnc3)ccc1OCC2`, the IC50 was below 1000 nM.
In turn, `CC(C)n1ncnc1-c1cn2c(n1)-c1ccc(OC3CCC3)cc1OCC2` registered an IC50 below 1000 nM.
Under `CC(C)n1ncnc1-c1cn2c(n1)-c1ccc(C3CCN(CCS(C)(=O)=O)CC3)cc1OCC2` stands below 1000 nM; under `CC(C)n1ncnc1-c1cn2c(n1)-c1ccc(C3CN(CC(=O)N(C)C)C3)cc1OCC2`, below 1000 nM.
`CC(C)n1nc(N)nc1-c1cn2c(n1)-c1cc(-c3ccc(Cl)cc3)ccc1OCC2` gave an IC50 below 1000 nM.
With `COC(=O)c1ccc2c(c1)OCCn1cc(-c3ncnn3CC(F)(F)F)nc1-2`, the IC50 is below 1000 nM.
For `CO[C@@H]1C[C@@H](C(N)=O)N(c2cc3c(cn2)-c2nc(-c4ncnn4C(C)C)cn2CCO3)C1`, the IC50 was below 1000 nM.
As to `Cc1nc(-c2cn3c(n2)-c2ccc(C4CCN(CC(=O)NC(C)C)CC4)cc2OCC3)n(C(C)C)n1`, the IC50 is below 1000 nM.
As to `CC(C)n1ccnc1-c1cn2c(n1)-c1ccc(-c3cnn(CC(C)(C)O)c3)cc1OCC2`, the IC50 is below 1000 nM.
Under `NC(=O)C1(Oc2ccc3c(c2)OCCn2cc(-c4ncnn4CC(F)(F)F)nc2-3)CC1` stands below 1000 nM.
`Cc1nc(-c2cn3c(n2)-c2ccc([C@@H]4CCNC[C@@H]4O)cc2OCC3)n(C(C)C)n1`: the IC50 is below 1000 nM.
Under `COc1ccc(CNc2cc3c(cn2)-c2nc(-c4nc(C)nn4CC(F)(F)F)cn2CCO3)cc1OC` stands below 1000 nM; under `CC(C)n1ncnc1-c1cn2c(n1)-c1ccc(C(=O)NO)cc1OCC2`, below 1000 nM.
Under `CC(=O)Nc1ccc(-c2ccc3c(c2)OCCn2cc(-c4nc(C)nn4C(C)C)nc2-3)cn1` stands below 1000 nM; under `CC(C)n1ncnc1-c1cn2c(n1)-c1ccc([C@@H](C)C(N)=O)cc1OCC2`, below 1000 nM.
On to `CNC(=O)Cn1ccnc1-c1cn2c(n1)-c1ccc(-c3cnn(CC(C)(C)O)c3)cc1OCC2`, for which the IC50 is below 1000 nM.
Consider `CC(C)n1ncnc1-c1cn2c(n1)-c1ccc(C3CCN(C(=O)C(C)(C)O)CC3)cc1OCC2`, for which the IC50 is below 1000 nM.
Under `Cc1nc(-c2cn3c(n2)-c2ccc(OC4CC4)cc2OCC3)n(C(C)C)n1` stands below 1000 nM; under `Cc1nc(-c2cn3c(n2)-c2ccc(C4CCN(C(C)(C)C(N)=O)CC4)cc2OCC3)n(C(C)C)n1`, below 1000 nM; under `C[C@@H](Oc1ccc2c(c1)OCCn1cc(-c3ncnn3CC(F)(F)F)nc1-2)C(N)=O`, below 1000 nM.
Under `CC(C)n1ncnc1-c1cn2c(n1)-c1ccc(-c3cn(CCO)cn3)cc1OCC2` stands below 1000 nM.
Under `NC(=O)[C@@H]1CCCN1c1cc2c(cn1)-c1nc(-c3ncnn3C3CCCCC3)cn1CCO2` stands below 1000 nM.
In turn, `Cc1nc(-c2cn3c(n2)-c2ccc(-c4cnc(N)nc4)cc2OCC3)n(C(C)C)n1` displayed an IC50 below 1000 nM.
`CC(C)n1ncnc1-c1cn2c(n1)-c1cnc(N3CCC(CO)CC3)cc1OCC2` registered an IC50 below 1000 nM.
Take `CC(C)N1CCN(C(=O)c2ccc3c(c2)-c2nc(-c4ncnn4CC(F)(F)F)cn2CCO3)CC1`: the half-inhibitory concentration (IC50) was below 1000 nM.
Compound `CC(C)n1ncnc1-c1cc2n(n1)-c1cc(CN3CCN(C(=O)CO)CC3)ccc1OCC2` gave an IC50 below 1000 nM.
Under `NC(=O)[C@@H]1CCCN1c1ccc2c(c1)OCCn1cc(-c3ncnn3CC(F)(F)F)nc1-2` stands below 1000 nM; under `Cc1nc(-c2cn3c(n2)-c2ccc(-c4cccnc4)cc2OCC3)n(C(C)C)n1`, below 1000 nM; under `CC(C)n1cnnc1-n1cc2c(n1)-c1ccccc1OCC2`, below 1000 nM.
`C[C@H](Oc1ccc2c(c1)OCCn1cc(-c3ncnn3C(C)(C)C)nc1-2)C(N)=O` yielded an IC50 below 1000 nM.
Under `FC(F)(F)Cn1ncnc1-c1cc2n(n1)-c1cc(C3CCNCC3)ccc1OCC2` stands below 1000 nM; under `Cc1ncc(-c2ccc3c(c2)OCCn2cc(-c4ncnn4C(C)C)nc2-3)n1C`, below 1000 nM.
Under `CC(C)n1ncnc1-c1cn2c(n1)-c1cnc(OCC(N)=O)cc1OCC2` stands below 1000 nM.
`OCCN1CCC(c2ccc3c(c2)-n2nc(-c4ncnn4CC(F)(F)F)cc2CCO3)CC1` came in with a 50% inhibitory concentration (IC50) below 1000 nM.
Under `Cc1nc(-c2cn3c(n2)-c2cc(-c4cnn(C)c4)ccc2OCC3)n(C(C)C)n1` stands below 1000 nM; under `Nc1nc(-c2cn3c(n2)-c2cc(-c4cncnc4)ccc2OCC3)n(-c2ccccc2Cl)n1`, below 1000 nM.
Under `Cc1nc(-c2ccc3c(c2)OCCn2cc(-c4ncnn4C(C)C)nc2-3)cn1CCOC1CCCCO1` (stereo unspecified) stands below 1000 nM; under `CC(C)n1ncnc1-c1cn2c(n1)-c1ccc(C3CCN(CC(F)(F)F)CC3)cc1OCC2`, below 1000 nM.
Regarding `CC(C)n1ncnc1-c1cn2c(n1)-c1cnc(N3CC[C@@H](O)C3)cc1OCC2`, the IC50 was below 1000 nM.
Under `CS(=O)(=O)CCN1CCC(CO)(c2ccc3c(c2)-c2nn(-c4ncnn4-c4ccc(F)cc4F)cc2CCO3)CC1` stands below 1000 nM; under `CC(C)n1ncnc1-c1cn2c(n1)-c1ccc(C3=C(C(N)=O)CN(C)CC3)cc1OCC2`, below 1000 nM.
Compound `CC(C)n1ncnc1-c1cn2c(n1)-c1ccc(-c3ccccc3CO)cc1OCC2` displayed an IC50 below 1000 nM.
For `CC(C)n1ncnc1-c1cn2c(n1)-c1cnc(N3CC=C[C@@H]3C(N)=O)cc1OCC2`, the IC50 is below 1000 nM.
Compound `NC(=O)[C@@H]1CCCN1c1cc2c(cn1)-c1nc(-c3ncnn3CC(F)(F)F)cn1CCO2` gave an IC50 below 1000 nM.
Under `CC(C)n1nc(N)nc1-c1cn2c(n1)-c1ccccc1OCC2` stands below 1000 nM.
Under `CC(C)n1nc(N)nc1-c1cn2c(n1)-c1ccc(C#N)cc1OCC2` stands below 1000 nM.
Under `Cc1nc(-c2cn3c(n2)-c2ccc(-c4cn(CC(C)(C)O)cn4)cc2OCC3)n(C(C)C)n1` stands below 1000 nM.
`CC(C)n1ncnc1-c1cc2n(n1)-c1cc(C3CN(Cc4ccncc4)C3)ccc1OCC2` gave an IC50 below 1000 nM.
`Cc1nc(-c2cn3c(n2)-c2ccc(C4CCN(CC(N)=O)CC4)cc2OCC3)n(C(C)C)n1` registered an IC50 below 1000 nM.
Under `CC(C)n1ncnc1-c1cn2c(n1)-c1ccc(C3CN(C(=O)C4(N)CC4)C3)cc1OCC2` stands below 1000 nM; under `O=C(c1ccc2c(c1)-c1nc(-c3ncnn3CC(F)(F)F)cn1CCO2)N1CCN(CCO)CC1`, below 1000 nM.
Under `CC(C)n1ncnc1-c1cn2c(n1)-c1ccc(N)cc1OCC2` stands below 1000 nM; under `CC(C)n1ncnc1-c1cn2c(n1)-c1ccc(CCS(N)(=O)=O)cc1OCC2`, below 1000 nM.
Under `CC(C)n1ncnc1-c1cn2c(n1)-c1cc(C(N)=O)ccc1OCC2` stands below 1000 nM; under `CC(C)n1ncnc1-c1cn2c(n1)-c1ccc(C3CCN(CC(=O)N(C)C)CC3)cc1OCC2`, below 1000 nM.
Compound `COc1cc2c(cn1)-c1nc(-c3ncnn3C(C)C)cn1CCO2` yielded an IC50 below 1000 nM.
Turning to `CC(C)n1ncnc1-c1cn2c(n1)-c1ccc(-c3cnn(C(C)(C)C(N)=O)c3)cc1OCC2`, the IC50 is below 1000 nM.
For the compound `CC(C)n1ccnc1-c1cn2c(n1)-c1cnc(N3CCC[C@H]3C(N)=O)cc1OCC2`, the IC50 is below 1000 nM.
Take `OCCN1CCN(Cc2ccc3c(c2)-n2nc(-c4ncnn4CC(F)(F)F)cc2CCO3)CC1`: the IC50 is below 1000 nM.
On to `CC(C)n1ncnc1-c1cn2c(n1)-c1ccc(C(=O)NC(C)(C)CO)cc1OCC2`, for which the IC50 was below 1000 nM.
Consider `CC(C)n1ncnc1-c1cn2c(n1)-c1ccc(-c3cnc(CC(C)(C)O)[nH]3)cc1OCC2`, for which the IC50 was below 1000 nM.
Under `CC(C)N1CC(NC(=O)c2ccc3c(c2)-n2nc(-c4ncnn4C(C)C)cc2CCO3)C1` stands below 1000 nM; under `CCOc1ccccc1-c1cn2c(n1)-c1ccc(C(=O)OC)cc1OCC2`, below 1000 nM; under `CC(C)n1ncnc1-c1cn2c(n1)-c1cnc(Cl)cc1OCC2`, below 1000 nM.
`Cc1ccc2c(c1)-c1nc(-c3nc(C)nn3C(C)C)cn1CCO2` displayed an IC50 below 1000 nM.
In turn, `Cc1nc(-c2cn3c(n2)-c2cc(C#N)ccc2OCC3)n(C(C)C)n1` showed an IC50 below 1000 nM.
`CC(C)C(Oc1ccc2c(c1)OCCn1cc(-c3ncnn3CC(F)(F)F)nc1-2)C(N)=O` (stereo unspecified) registered an IC50 below 1000 nM.
Take `CC(C)n1ncnc1-c1cc2n(n1)-c1cc(C(=O)NCC(C)(C)O)ccc1OCC2`: the IC50 is below 1000 nM.
Under `CC(C)n1ncnc1-c1cn2c(n1)-c1ccc([C@H]3CCNC[C@@H]3O)cc1OCC2` stands below 1000 nM; under `NC(=O)CN1CC(c2ccc3c(c2)OCCc2cn(-c4ncnn4-c4ccc(F)cc4F)nc2-3)C1`, below 1000 nM; under `Cc1nc(-c2cn3c(n2)-c2cc(-c4ccc[nH]c4=O)ccc2OCC3)n(C(C)C)n1`, below 1000 nM.
Under `CC(C)n1ncnc1-n1cc2c(n1)-c1cc(-c3cn[nH]c3)ccc1OCC2` stands below 1000 nM.
Regarding `NC(=O)[C@@H]1CCCCN1c1ccc2c(c1)OCCn1cc(-c3ncnn3CC(F)(F)F)nc1-2`, the IC50 is below 1000 nM.
